Here are results for four compounds from US20230172878A1, “COMPOSITIONS AND METHODS FOR TREATING CYTOKINE STORMS” (priority 2020, published 2023).

In data set [1] the test system is mice. To be noted: cited from earlier work.
Data set [2] relates to mice. The note with it: 10× higher doses than the human equivalent dose proposed for clinical trials; cited from earlier work.
The next data set concerns dogs. To be noted: 10× higher doses than the human equivalent dose proposed for clinical trials; cited from earlier work.
In a further data set the test system is rats. The note with it: 10× higher doses than the human equivalent dose proposed for clinical trials; cited from earlier work.
The next data set concerns THP-1 cells. Put plainly: LPS-induced cytokine secretion by THP-1 cells. The class given is cell-based, human. The note with it: LPS 25 ng/ml, 24 hours. As for the experimental part:
THP-1 cells (a human monocytic cell line derived from an acute monocytic leukemia patient) were cultured to 80% confluence. The THP-1 cells were then treated with LPS at 25 ng/ml to induce cytokine secretion. Cells were treated with either various concentration of meglumine. Tissue culture media was harvested at 24 hours and the levels of cytokines were determined.

Data set [3] has as its system PBMCs. Put plainly: LPS-stimulated cytokine-positive PBMCs, flow cytometry. The class given is cell-based, human. To be noted: 4 hours. As for the experimental part: Lipopolysaccharide (LPS) at […] concentration was used as a positive control for cytokine production in PBMCs. Meglumine was added at 40 mM and the cells allowed to incubate for 4 hours before sorting. […] (p<0.05 vs unstimulated and p<0.05 vs LPS). FIG. 8. The same protocol was sued to measure IL-1α production. […] FIG. 9.
For orientation: A flow cytometer gives signals particle by particle.

The subject of data set [4] is PBMCs. Briefly: Cytokine production by morpholinofructose-stimulated PBMCs from two donors. The class given is cell-based, human. The protocol:
For FIGS. 2 through 7, cells from two donors were used, each in a separate independent study. Cytokines secreted in the media by the cells were measured at 2, 4, 6, 24 and 48 hours.
In the following examples cells were stimulated known cytokine stimulants, either lipopolysaccharide (“LPS”) or morpholino fructose. […] Varying levels of meglumine, or a salt thereof were then administered to the stimulated cells and the resulting cytokine levels measured.
Peripheral blood mononuclear cells (“PBMC”s) from two donors were used to measure cytokine levels in response to various inputs. For each donor, one group of PBMCs were untreated. One group was allowed to remain in cell culture. A different group was treated with 40 mM meglumine. Another group was treated with morpholinofructose at 40 mM concentration. Three remaining groups were treated with morpholinofructose at 40 mM concentration and meglumine at concentration of 20 mM, 40 mM, and 80 mM. The groups were allowed to incubate for up to 50 hours. Cytokines secreted in the media by the cells were measured at 2, 4, 6, 24 and 48 hours The percentage of cells positive for IL-6 was determined by flow cytometry.
The same protocol was used to measure the addition of meglumine to reduce the levels of TNF-α (FIGS. 3A and 3B), MIP-1α (FIGS. 4A and 4B), MCP-1(FIGS. 5A and 5B), and MCP-1 ((FIGS. 6A and 6B).

Regarding `COc1cc2nc(N3CCN(C(=O)c4ccco4)CC3)nc(N)c2cc1OC` [Prazosin, prazosin], the “catecholamines and cytokine responses” value in the data set with mice [1] is reported as “reduces”. Further, the survival result with mice [1] (following various hyper-inflammatory stimuli) is listed as “markedly increased survival”.

In the case of `CNC[C@H](O)[C@@H](O)[C@H](O)[C@H](O)CO.Cl` [meglumine HCl], the safety result in the data set on mice [2], in the data set on dogs and with rats was “safe” each time.

On to `CNC[C@H](O)[C@@H](O)[C@H](O)[C@H](O)CO` [meglumine, (2R,3R,4R,5S)-6-(Methylamino)hexane-1,2,3,4,5-pentol], for which the “lowest concentration at which cytokine reduction was exhibited” value with THP-1 cells stood at 10 mm. Moreover, the “secretion of IL-8” value with THP-1 cells (meglumine at high concentrations, FIG. 11) is “ability to interfere with the secretion”. Further, the “secretion of MIP-1α” value in the data set with THP-1 cells (meglumine at high concentrations, FIG. 13) was “ability to interfere with the secretion”. Besides, in the data set on THP-1 cells (meglumine at high concentrations, FIG. 14), the “secretion of MIP-1β” value is “ability to interfere with the secretion”. The “secretion of VEGF” value in the data set on THP-1 cells (meglumine at high concentrations, FIG. 15) is on record as “ability to interfere with the secretion”. Moreover, the “LPS-stimulated increase in the percentage of IL-6 positive PBMCs” value with PBMCs [3] (LPS 40 mM, meglumine 40 mM, p<0.05 vs unstimulated and vs LPS, FIG. 8) is “significantly reduced”. For the same compound, the “percentage of PBMCs expressing IL-1α” value with PBMCs [3] (combination of LPS and meglumine 40 mM, FIG. 9) was “significantly increased”. Besides, in the data set with PBMCs [4] (40 mM morpholinofructose plus meglumine 20, 40, 80 mM, measured at 2, 4, 6, 24 and 48 hours), the “IL-6 levels in the PBMCs” value was “reduced the IL-6 levels”. For the same compound, in the data set with PBMCs [4] (40 mM morpholinofructose plus various concentrations of meglumine, FIGS. 3A, 3B), the TNF-α production result is reported as “decreased”. Besides, the “MIP 1α production” value in the data set with PBMCs [4] (40 mM morpholinofructose plus various concentrations of meglumine, FIGS. 4A, 4B) is “decreased”. Besides, the “MCP 1 production” value with PBMCs [4] (40 mM morpholinofructose plus various concentrations of meglumine, FIGS. 5A, 5B) is given as “decreased”. For the same compound, the IL-10 production result with PBMCs [4] (40 mM morpholinofructose plus various concentrations of meglumine, FIGS. 6A, 6B) was “decreased”.

Consider `O=C(CN1CCOCC1)[C@@H](O)[C@H](O)[C@H](O)CO` [morpholinofructose, reference compound], for which the “IL-6 production versus control cells” value in the data set with PBMCs [4] (human PBMCs incubated with 40 mM morpholinofructose, FIG. 7) is listed as “significantly more IL-6 than control cells”.
